ChEMBL document CHEMBL1201862, “PubChem BioAssay data set” (2004)
Values joined by “and” are separate entries in the source; they are usually repeats but may differ in a detail not shown here. Identical values can stand only once. Active and inactive are the calls of the source.

How the values were obtained:
Cytochrome P450 3A4 = Cytochrome P450 3A4 (Homo sapiens, UniProt P08684); conditions: Potency;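 note: confirmatory qHTS run detecting inhibitors and substrates of CYP3A4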
[1] = target: T1, Voltage-gated N-type calcium channel alpha-1B subunit/Amyloid beta A4 precursor protein-binding family A member 1 (Homo sapiens, UniProt Q00975+Q02410); assay type: protein assay
[2] = target: T1, Voltage-gated N-type calcium channel alpha-1B subunit/Amyloid beta A4 precursor protein-binding family A member 1; assay type: protein assay; remark: listed apart in the source
[3] = HEK-293T cell viability reduction – luminescence, B-cell screen hits, cytotoxicity control for BCR NF-kB inhibitor project, dose response (AID 489021); assay type: functional, cell-based;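 note: HEK-293T cells carrying an NF-kB luciferase reporter; cells exposed to compound for about 14 hours before viability readout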
[4] = THP-1 cell cytotoxicity, dose response, cytotoxicity control for non-replicating M. tuberculosis project (AID 489025); assay type: functional
cells = assay type: functional
Hexokinase = target: T2, Hexokinase (Trypanosoma brucei, UniProt Q38C41); experiment: Confirmation assay for inhibitors of Trypanosoma brucei hexokinase 1-Analogue-first series. [Related pubchem assays (depositor defined):AID1430, AID1632, AID2516, AID2560, AID2579, AID2600, AID449725, AID492951]; assay type: functional
T2 sequence (Q38C41 whole entry): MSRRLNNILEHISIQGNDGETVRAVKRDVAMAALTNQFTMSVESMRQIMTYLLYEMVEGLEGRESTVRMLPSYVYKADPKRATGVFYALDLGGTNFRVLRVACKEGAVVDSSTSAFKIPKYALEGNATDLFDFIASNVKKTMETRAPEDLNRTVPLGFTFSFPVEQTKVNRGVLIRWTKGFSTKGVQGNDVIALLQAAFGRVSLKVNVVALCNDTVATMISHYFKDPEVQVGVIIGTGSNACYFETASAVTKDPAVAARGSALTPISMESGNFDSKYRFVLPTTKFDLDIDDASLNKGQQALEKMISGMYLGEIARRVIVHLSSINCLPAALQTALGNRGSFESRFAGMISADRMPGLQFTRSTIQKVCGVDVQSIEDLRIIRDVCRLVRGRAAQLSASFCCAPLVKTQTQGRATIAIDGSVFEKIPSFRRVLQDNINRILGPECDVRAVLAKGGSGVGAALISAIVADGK

Aminopeptidase N = target: T3, Aminopeptidase N (Plasmodium falciparum FcB1/Columbia, UniProt O96935); experiment: malaria alanyl aminopeptidase activity blockers – biochemical, fluorogenic H-Leu-NHMec substrate, 1536-well (AID 1445); set-up: species or system Plasmodium falciparum 3D7, 3D7
T3 sequence (O96935 whole entry): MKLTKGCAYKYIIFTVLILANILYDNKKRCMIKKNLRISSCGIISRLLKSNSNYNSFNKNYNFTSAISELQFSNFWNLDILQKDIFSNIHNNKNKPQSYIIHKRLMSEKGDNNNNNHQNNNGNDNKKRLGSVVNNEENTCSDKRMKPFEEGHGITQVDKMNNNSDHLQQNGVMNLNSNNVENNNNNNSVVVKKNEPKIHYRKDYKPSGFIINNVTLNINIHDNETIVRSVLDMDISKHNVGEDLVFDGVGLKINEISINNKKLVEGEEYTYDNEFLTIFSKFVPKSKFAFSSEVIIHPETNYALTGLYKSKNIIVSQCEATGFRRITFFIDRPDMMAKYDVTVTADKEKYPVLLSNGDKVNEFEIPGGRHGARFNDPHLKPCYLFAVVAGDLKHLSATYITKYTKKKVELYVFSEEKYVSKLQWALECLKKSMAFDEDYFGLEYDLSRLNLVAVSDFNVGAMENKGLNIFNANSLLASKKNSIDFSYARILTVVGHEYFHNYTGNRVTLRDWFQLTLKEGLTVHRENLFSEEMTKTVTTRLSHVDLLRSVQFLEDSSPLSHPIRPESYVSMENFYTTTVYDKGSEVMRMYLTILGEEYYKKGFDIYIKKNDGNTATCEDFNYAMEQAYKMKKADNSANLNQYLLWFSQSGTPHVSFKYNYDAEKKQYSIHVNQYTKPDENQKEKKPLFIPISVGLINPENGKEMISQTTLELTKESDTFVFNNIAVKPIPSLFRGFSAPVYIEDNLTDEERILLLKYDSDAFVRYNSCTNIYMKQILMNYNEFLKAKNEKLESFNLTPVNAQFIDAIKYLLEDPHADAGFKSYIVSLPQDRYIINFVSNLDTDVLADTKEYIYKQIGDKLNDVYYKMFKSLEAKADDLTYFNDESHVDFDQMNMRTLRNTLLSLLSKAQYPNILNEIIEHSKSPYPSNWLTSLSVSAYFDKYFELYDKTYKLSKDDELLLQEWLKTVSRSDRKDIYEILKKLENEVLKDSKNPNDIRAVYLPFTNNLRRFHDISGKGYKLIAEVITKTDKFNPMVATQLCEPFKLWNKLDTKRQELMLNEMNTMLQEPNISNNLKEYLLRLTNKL

Phosphomannomutase 2 = target: T4, Phosphomannomutase 2 (Homo sapiens, UniProt O15305); experiment: Counter screen SAR assay for PMM2 inhibitors via a fluorescence intensity assay. [Related pubchem assays (depositor defined):AID1545, AID1574]
T4 sequence (O15305 whole entry): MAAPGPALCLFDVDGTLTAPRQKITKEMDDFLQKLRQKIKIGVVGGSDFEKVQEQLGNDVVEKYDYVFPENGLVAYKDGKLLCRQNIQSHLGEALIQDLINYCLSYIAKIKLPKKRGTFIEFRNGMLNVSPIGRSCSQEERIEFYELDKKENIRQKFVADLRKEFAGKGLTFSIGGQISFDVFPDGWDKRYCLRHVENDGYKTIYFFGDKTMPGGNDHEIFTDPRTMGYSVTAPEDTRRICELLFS

[5] = target: T5, Mannose-6-phosphate isomerase (Homo sapiens, UniProt P34949); experiment: phosphomannose isomerase inhibition – biochemical, fluorescence intensity, confirmation (AID 1535)
T5 sequence (P34949 whole entry): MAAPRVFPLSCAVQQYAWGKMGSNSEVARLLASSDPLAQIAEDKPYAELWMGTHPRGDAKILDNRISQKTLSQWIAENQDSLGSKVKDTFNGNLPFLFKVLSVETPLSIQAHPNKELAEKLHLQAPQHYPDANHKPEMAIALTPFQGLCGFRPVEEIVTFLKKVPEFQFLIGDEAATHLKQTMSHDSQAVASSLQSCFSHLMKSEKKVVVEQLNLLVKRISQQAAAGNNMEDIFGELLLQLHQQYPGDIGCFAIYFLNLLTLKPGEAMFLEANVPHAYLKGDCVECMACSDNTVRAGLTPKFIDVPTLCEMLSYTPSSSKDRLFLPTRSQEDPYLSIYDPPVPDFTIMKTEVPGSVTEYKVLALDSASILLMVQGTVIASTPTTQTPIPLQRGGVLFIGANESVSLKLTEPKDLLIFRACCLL

Coagulation factor XII = target: T6, Coagulation factor XII (Homo sapiens, UniProt P00748); assay type: functional;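 note: activated factor XIIa alpha cleaving a fluorogenic AMC peptide substrate; inhibitor potency from loss of enzyme activity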
T6 sequence (P00748 whole entry): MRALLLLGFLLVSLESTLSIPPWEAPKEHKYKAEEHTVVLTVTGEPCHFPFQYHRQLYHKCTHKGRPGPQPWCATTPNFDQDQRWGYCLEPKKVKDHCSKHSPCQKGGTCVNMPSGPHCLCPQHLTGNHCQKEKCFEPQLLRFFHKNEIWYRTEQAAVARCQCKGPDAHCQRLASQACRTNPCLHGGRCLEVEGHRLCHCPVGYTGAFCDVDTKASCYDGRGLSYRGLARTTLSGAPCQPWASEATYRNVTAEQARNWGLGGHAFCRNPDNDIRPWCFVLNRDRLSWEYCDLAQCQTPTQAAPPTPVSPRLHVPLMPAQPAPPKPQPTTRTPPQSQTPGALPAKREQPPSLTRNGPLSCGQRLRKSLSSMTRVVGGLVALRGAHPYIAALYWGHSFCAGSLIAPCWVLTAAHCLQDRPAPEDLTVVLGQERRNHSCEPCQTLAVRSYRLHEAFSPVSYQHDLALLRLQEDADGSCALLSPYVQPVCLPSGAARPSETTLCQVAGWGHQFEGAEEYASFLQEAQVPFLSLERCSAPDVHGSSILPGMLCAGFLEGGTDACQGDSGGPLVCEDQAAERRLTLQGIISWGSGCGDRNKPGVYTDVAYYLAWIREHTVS

[6] = target: Glucose-6-phosphate 1-dehydrogenase (Homo sapiens, UniProt P11413); experiment: inhibition of Homo sapiens G6PD, dose series – biochemical, fluorescence, selectivity assay for P. falciparum G6PD inhibitor project, dose response (AID 504792); assay type: functional
Large T antigen = Large T antigen (Simian virus 40, UniProt P03070); assay type: functional, Betapolyomavirus macacae;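 note: Confirmatory-stage PubChem screen for compounds that inhibit SV40 T antigen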
[7] = target: T7, Alkaline phosphatase, tissue-nonspecific isozyme (Homo sapiens, UniProt P05186); experiment: potency against alkaline phosphatase TNAP – biochemical, luminescent, dose response, SAR follow-up (AID 1056)
T7 sequence (P05186 whole entry): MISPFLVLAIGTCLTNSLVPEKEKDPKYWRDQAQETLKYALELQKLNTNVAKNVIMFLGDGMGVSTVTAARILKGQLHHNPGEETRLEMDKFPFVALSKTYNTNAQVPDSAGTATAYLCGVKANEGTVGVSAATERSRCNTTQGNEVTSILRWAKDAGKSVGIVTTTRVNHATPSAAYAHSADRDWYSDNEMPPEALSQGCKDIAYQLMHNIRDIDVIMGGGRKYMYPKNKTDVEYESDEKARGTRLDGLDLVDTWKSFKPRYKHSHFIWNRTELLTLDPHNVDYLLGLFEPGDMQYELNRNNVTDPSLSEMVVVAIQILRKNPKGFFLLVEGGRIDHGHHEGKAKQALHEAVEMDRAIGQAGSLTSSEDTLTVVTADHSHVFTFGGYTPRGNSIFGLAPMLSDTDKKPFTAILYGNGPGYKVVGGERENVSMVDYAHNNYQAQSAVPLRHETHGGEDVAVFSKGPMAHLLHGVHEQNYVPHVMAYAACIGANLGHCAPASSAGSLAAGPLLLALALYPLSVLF

[8] = target: Alkaline phosphatase, placental type (Homo sapiens, UniProt P05187); experiment: human placental alkaline phosphatase inhibition – biochemical, luminescence, confirmation (AID 1512); assay type: functional
Troponin, cardiac muscle = Troponin, cardiac muscle (Homo sapiens, UniProt P19429+P45379+P63316); experiment: Fluorescence-based biochemical high throughput dose response assay for activators of the calcium sensitivity of cardiac Regulated Thin Filaments (RTF). [Related pubchem assays (depositor defined):AID493008, AID493018, AID504382, AID504383]; assay type: protein-complex assay
[9] = target: DNA dC->dU-editing enzyme APOBEC-3A (Homo sapiens, UniProt P31941); experiment: Dose Response confirmation of small molecule APOBEC3A DNA Deaminase Inhibitors via a fluorescence-based single-stranded DNA deaminase assay. [Related pubchem assays (depositor defined):AID493011, AID493024]; assay type: functional
[10] = target: DNA dC->dU-editing enzyme APOBEC-3G (Homo sapiens, UniProt Q9HC16); assay type: functional;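 note: Dose-response counterscreen measuring inhibition of APOBEC3G DNA deaminase activity, run while confirming APOBEC3A inhibitors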

Chain of Cytochrome P450 3A4 (P08684 whole entry): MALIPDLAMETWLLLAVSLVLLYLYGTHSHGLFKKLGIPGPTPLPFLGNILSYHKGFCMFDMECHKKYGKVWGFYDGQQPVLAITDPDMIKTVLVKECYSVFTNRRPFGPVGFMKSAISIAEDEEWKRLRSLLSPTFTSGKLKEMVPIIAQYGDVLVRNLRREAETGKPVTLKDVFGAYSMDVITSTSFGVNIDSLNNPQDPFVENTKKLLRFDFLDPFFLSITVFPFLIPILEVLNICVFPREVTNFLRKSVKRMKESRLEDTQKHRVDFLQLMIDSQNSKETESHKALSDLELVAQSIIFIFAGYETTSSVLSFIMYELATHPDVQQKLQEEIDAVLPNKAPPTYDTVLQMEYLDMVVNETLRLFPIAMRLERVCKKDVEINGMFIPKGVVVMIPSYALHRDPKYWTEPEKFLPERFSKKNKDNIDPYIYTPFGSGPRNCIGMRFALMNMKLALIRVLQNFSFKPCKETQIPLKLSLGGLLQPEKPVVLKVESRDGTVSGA
T1 sequence (Q00975 whole entry): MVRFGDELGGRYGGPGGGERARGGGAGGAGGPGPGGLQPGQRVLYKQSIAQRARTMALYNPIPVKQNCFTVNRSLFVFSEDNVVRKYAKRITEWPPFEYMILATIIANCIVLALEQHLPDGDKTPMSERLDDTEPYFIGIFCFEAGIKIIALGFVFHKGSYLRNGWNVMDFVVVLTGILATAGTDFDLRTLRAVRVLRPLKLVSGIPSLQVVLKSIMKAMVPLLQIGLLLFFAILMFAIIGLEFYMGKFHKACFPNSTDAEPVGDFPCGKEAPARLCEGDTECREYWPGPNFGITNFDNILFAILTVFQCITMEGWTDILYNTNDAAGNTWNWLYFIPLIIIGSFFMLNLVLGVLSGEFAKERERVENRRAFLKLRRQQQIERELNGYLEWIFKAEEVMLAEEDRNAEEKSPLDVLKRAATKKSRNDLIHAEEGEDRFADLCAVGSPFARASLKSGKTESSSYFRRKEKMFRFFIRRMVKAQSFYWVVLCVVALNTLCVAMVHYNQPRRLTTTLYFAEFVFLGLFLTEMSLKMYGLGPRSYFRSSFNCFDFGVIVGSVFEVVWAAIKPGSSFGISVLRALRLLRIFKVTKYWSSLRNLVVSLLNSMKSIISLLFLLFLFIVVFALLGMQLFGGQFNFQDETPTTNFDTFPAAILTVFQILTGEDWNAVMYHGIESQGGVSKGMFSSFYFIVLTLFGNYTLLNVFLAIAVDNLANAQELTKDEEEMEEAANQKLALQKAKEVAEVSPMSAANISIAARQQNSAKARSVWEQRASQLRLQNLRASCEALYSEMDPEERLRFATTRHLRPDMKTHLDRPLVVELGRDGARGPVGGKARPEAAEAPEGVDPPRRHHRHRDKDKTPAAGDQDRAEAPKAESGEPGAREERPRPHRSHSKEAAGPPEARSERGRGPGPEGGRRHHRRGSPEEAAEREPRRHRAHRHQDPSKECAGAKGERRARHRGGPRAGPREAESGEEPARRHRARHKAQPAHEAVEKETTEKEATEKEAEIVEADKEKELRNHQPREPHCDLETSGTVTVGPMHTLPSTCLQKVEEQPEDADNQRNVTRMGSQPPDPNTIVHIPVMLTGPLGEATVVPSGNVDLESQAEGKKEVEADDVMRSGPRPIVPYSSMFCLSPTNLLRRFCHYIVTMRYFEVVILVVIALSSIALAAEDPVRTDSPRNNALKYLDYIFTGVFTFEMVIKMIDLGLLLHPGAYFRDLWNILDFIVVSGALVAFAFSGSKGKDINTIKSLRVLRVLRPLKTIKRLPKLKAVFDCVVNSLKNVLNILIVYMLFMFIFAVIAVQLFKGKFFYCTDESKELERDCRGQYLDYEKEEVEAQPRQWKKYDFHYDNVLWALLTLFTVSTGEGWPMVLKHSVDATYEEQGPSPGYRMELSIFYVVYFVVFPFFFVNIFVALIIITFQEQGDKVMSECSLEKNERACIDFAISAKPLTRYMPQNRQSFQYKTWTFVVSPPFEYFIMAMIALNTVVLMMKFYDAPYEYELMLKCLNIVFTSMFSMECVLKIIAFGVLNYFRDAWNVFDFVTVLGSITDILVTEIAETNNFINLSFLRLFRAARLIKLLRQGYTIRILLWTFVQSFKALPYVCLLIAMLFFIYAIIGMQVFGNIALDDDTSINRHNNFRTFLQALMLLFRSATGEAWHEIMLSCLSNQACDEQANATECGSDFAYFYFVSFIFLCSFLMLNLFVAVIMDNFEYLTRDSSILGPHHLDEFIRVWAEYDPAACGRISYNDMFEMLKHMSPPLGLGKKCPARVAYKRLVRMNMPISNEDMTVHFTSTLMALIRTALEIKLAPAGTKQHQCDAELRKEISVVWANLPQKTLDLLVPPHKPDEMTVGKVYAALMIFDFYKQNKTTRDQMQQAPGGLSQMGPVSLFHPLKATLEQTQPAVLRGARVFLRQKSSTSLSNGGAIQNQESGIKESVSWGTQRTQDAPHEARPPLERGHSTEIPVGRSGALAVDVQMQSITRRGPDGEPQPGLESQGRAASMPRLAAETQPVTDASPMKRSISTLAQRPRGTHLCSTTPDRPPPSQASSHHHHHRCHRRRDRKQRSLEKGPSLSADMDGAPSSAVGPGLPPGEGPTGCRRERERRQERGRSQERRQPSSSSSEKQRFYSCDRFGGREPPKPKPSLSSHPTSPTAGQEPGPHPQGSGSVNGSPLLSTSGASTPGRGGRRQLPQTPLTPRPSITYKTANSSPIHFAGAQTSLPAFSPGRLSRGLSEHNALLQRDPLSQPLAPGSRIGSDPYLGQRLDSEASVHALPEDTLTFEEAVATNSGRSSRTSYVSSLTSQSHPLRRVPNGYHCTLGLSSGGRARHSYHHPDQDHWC
T1 sequence (Q02410 whole entry): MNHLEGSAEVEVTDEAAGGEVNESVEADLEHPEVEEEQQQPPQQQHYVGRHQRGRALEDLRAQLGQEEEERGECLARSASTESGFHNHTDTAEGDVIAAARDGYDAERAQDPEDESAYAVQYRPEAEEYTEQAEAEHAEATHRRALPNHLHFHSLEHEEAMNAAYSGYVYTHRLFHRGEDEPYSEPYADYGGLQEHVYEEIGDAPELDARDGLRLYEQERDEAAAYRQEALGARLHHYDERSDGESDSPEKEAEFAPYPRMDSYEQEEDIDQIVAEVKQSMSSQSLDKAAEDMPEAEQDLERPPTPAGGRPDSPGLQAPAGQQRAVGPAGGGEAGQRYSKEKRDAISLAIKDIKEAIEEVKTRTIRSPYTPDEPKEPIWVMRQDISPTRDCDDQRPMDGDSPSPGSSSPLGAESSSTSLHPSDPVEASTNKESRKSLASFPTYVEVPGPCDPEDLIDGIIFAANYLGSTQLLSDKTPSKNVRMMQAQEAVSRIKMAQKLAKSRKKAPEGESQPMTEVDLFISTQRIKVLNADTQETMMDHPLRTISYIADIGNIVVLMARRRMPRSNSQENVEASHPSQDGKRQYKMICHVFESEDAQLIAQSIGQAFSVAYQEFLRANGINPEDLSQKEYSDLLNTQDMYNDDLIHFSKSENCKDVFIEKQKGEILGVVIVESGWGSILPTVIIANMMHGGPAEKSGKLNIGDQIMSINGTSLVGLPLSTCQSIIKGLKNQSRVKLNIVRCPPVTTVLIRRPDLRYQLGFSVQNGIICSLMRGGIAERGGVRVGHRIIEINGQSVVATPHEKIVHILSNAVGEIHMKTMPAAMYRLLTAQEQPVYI
Chain of Large T antigen (P03070 whole entry): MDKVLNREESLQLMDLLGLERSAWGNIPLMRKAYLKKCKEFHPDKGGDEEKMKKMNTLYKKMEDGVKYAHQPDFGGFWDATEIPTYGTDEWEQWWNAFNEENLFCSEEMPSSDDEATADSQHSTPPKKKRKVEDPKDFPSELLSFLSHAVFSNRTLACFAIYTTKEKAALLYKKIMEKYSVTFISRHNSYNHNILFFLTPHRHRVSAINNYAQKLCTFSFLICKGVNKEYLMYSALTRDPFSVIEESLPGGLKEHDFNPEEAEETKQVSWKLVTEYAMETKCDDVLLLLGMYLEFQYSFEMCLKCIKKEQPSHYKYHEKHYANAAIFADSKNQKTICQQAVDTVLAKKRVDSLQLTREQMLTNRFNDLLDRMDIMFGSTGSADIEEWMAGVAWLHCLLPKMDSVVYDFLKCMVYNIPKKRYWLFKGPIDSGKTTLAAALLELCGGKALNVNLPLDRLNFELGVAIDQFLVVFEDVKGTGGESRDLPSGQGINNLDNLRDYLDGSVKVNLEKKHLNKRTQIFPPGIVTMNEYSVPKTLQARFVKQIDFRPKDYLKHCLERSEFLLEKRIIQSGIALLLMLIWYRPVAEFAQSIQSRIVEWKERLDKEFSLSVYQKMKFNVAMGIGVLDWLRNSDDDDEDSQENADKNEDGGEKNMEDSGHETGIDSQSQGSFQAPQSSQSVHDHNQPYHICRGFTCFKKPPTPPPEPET
Chain of Glucose-6-phosphate 1-dehydrogenase (P11413 whole entry): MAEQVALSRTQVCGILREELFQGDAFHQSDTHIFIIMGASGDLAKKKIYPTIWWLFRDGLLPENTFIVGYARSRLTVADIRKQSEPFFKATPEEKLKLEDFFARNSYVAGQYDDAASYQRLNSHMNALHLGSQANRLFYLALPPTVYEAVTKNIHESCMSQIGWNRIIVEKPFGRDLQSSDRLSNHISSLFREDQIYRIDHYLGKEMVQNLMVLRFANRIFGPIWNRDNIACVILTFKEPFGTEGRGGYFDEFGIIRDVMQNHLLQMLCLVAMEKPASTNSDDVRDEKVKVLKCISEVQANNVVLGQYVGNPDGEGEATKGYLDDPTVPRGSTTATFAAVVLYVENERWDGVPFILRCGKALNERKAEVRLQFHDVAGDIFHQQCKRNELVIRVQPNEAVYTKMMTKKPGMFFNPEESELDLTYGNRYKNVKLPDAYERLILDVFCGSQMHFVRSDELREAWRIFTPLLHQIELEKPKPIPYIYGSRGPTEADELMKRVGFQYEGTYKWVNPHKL
Chain of DNA dC->dU-editing enzyme APOBEC-3A (P31941 whole entry): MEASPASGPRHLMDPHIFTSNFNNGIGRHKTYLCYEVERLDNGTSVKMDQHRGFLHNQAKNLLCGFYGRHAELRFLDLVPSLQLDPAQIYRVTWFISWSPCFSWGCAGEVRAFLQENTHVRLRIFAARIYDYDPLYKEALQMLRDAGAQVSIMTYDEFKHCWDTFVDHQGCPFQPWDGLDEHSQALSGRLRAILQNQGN

## CCC(=O)OCC(=O)C1(OC(=O)CC)C(C)CC2C3CCC4=CC(=O)C=CC4(C)C3(Cl)C(O)CC21C (configuration not stated)
Cytochrome P450 3A4
  AC50: 12.6 µM (inconclusive)

## CN1C(=O)C(=C/C=C/Nc2ccccc2)C(=O)N(C)C1=S
[1]
  IC50: 6.18 µM (active)
[2]
  IC50: > 50 µM (inactive)

## Cn1c(=O)cc(OCCCC(=O)N2CCCCC2)c2ccccc21
[3]
  IC50: > 80 µM (inactive)

## O=C(OCC(=O)N1CCN(c2ccccc2)CC1)c1cnc(Cl)c(Cl)c1
[4]
  CC50: 34.2 µM (active)
cells
  IC50: 3.69 µM (active)

## C#CCCCCCCCCCCCC(O)CC(O)CO (configuration not stated) [AVOCADYNE]
Cytochrome P450 3A4
  AC50: 39.8 µM (inconclusive)

## O=c1c2ccccc2sn1-c1ccccc1Cl
Hexokinase
  IC50: 1.97 µM (active)

## CCCCc1cc(=O)oc2c(CN(C)C)c(O)c(Cl)cc12
Aminopeptidase N
  IC50: 27.3 µM (active)

## Cc1cc2n(n1)SC(Nc1cc(Cl)ccc1Cl)N2 (configuration not stated)
Phosphomannomutase 2
  IC50: > 100 µM (inactive)
[5]
  IC50: > 50 µM (inactive)

## COc1ccc(C(=O)Nc2cc(Cl)ccc2C#N)cc1
Hexokinase
  IC50: > 25 µM (inactive)

## O=S(=O)(c1ccc(S(=O)(=O)N2CCCC2)cc1)N1CCCCCC1
Coagulation factor XII
  IC50: > 50 µM (inactive)

## COc1cc(C(=O)O/N=C2\C=CC(=O)C=C2C)cc(OC)c1OC
Coagulation factor XII
  IC50: 10.3 µM (active)
[6]
  IC50: > 80 µM (inactive)

## N=C1/C(=C\c2coc3ccc(O)cc3c2=O)C(=O)N=C2SC=CN12
Large T antigen
  IC50: 15.8 µM (active)
Aminopeptidase N
  IC50: 57.6 µM (active)

## COc1ccc(N2C(=O)CC(Nc3cccc([N+](=O)[O-])c3)C2=O)cc1 (configuration not stated)
Coagulation factor XII
  IC50: > 50 µM (inactive)

## CC(=O)Nc1ccc(OC(=O)c2cc3cc(Br)ccc3oc2=O)cc1
[1]
  IC50: 2 µM (active)
[2]
  IC50: > 50 µM (inactive)

## O=c1cc(-c2ccccc2)oc2cccc(O)c12 [5-HYDROXYFLAVONE]
Cytochrome P450 3A4
  AC50: 6.31 µM (inconclusive) and 20 µM (inconclusive)

## Cc1ccc(-c2nnc(SCC(=O)c3ccc(O)c(O)c3)n2-c2ccccc2)cc1
[7]
  IC50: > 100 µM (inactive)
[8]
  IC50: > 100 µM (inactive)

## COc1ccc(N2C(=O)c3ccc(Cl)cc3C2=O)cc1
Hexokinase
  IC50: > 25 µM (inactive)

## O=C(O)c1cc(NCc2ccc(F)cc2)ccc1N1CCOCC1
Troponin, cardiac muscle
  EC50: > 71.5 µM (inactive)

## O=c1c2ccccc2sn1-c1ncc([N+](=O)[O-])s1
Phosphomannomutase 2
  IC50: > 100 µM (inactive)
[5]
  IC50: 22.7 µM (active)

## CC1(C)CC(=O)C=C(Nc2ccccc2N)C1
Troponin, cardiac muscle
  EC50: > 71.5 µM (inactive)

## CCOC(=O)c1cc(-c2cccc([N+](=O)[O-])c2)nc2[nH]c(=O)[nH]c(=O)c12
Aminopeptidase N
  IC50: 7.44 µM (active)

## N#Cc1cccc(NC(=O)C[n+]2c3n(c4ccc(C(F)(F)F)cc42)CCCCC3)c1
[9]
  IC50: 1.97 µM (active)
[10]
  IC50: 2.75 µM (active)

## CC(C)C[C@@H](N)c1nnc(SCC(=O)c2ccc(Cl)cc2)o1
[3]
  IC50: > 80 µM (inactive)
